From patent publication US20240165089A1, “METHOD FOR TREATING MYOPIA WITH VINPOCETINE” (EYE HOSPITAL, WENZHOU MEDICAL UNIVERSITY, priority 2021, published 2024)
In brackets after ≈: the same amount, converted by molar mass. Read-outs that look alike come from different tables or passages of the source.

Assays:
rats = details: rat, in vivo, cited from earlier work
[1] = rats; cited from earlier work
[2] = test system: lens induction myopia (LIM, −4D lens) guinea pig model; assay: lens induction myopia (LIM) guinea pig model, injection around the eyeball; assay type: in vivo
Text: The form deprivation and lens-induced guinea pig myopia model is a classic and recognized myopia animal model in the field. The model can be used to evaluate the efficacy and safety of drugs for treating myopia. The construction method of the model is well known to those skilled in the art. The animal modeling and administration route in this application refer to the scientific literature previously published by this research group (Sen Zhang, Invest Ophthalmol Vis Sci. 2019 Jul. 1; 60(8):3074-3083.; Miaozhen Pan, Exp Eye Res. 2021 January; 202:108332.), specifically, this application uses the following exemplary construction method of the form deprivation and lens-induced guinea pig myopia model:
three-week-old tricolor guinea pigs (both male and female, simulating humans aged 3-26 years old) were used and raised in the experimental animal room of Wenzhou Medical University in a 12-hour light (400-500 lux)/12-hour dark environment with free access to water and food. The myopia model adopted monocular form deprivation (FD) and lens induction (LI) modeling methods. […] In the lens induction group, a −4D lens was fixed in front of the right eye of the animal, and the left eye obtained normal vision. For the above animals, the lenses were cleaned twice a day to prevent the lenses from blurring. The animals in the experimental group were administrated at 9:00-9:30 am every day. […] The administration process for each animal was controlled in about 10 seconds. Administration began on the day of modeling, and was continuous for 2 weeks for the form deprivation group and was continuous for 1 week for the lens induction group. This experiment has been reviewed by the Experimental Animal Ethics Committee of Wenzhou Medical University.
The inventors prepared a 5 μM (i.e., 1.75 μg/mL) vinpocetine stock solution and stored at −80° C. The solvent was physiological saline. Before administration experiment, the stock solution was diluted with physiological saline to 1 μM, 0.1 μM, and 0.01 μM, respectively. During the formulation process of vinpocetine eye drops, the solubility can be increased by using conventional physical methods such as heating and stirring, or acids can also be used to adjust the PH value to increase solubility, and finally, the PH value can be adjusted to 7.31.
2. Lens induction plus drug injection group: • wearing a −4D lens on one eye and injecting vinpocetine (0.01 μM: 0.1 mL/day) into the eye wearing the −4D lens for 1 weeks, sample size=12; • wearing a −4D lens on one eye and injecting vinpocetine (0.1 μM: 0.1 mL/day) into the eye wearing the −4D lens for 1 weeks, sample size=12; • wearing a −4D lens on one eye and injecting vinpocetine (1.00 μM 0.1 mL/day) into the eye wearing the −4D lens for 1 weeks, sample size=13; • 3.
All animals in the same model efficacy experiment were measured within the same time period, and the first measurement was at 3 weeks of age, that is, before drug administration. Refractions and eyeball parameters were measured for the animals in the above FDM group before the experiment, after 1 week of administration in the experiment and after 2 weeks of administration in the experiment and for the animals in the LIM group before the experiment, after 3 days of administration in the experiment and after 7 days of administration in the experiment, respectively. The refractions were measured using an eccentric infrared photoretinoscope (EIR) built in our laboratory. Each eye was measured three times and the average was taken as the final result. The axial parameters of the guinea pig's eyeballs were measured using the A-ultrasound probe in the CinescanA/B ultrasonic diagnostic instrument (QuantelMedical, Aviso, France). The ultrasonic frequency was 11 MHz. The ultrasonic propagation speeds of different refractive media of the eyeball were set as: 1557.5 m/s for the anterior chamber, 1723.3 m/s for the lens, and 1540 m/s for the vitreous body.

rabbits = details: rabbit, in vivo, cited from earlier work
[3] = cited from earlier work
[4] = test system: form deprivation myopia (FDM) guinea pig model; assay: FDM guinea pig model, systemic (gavage) administration; assay type: in vivo; details: for axial length difference between the eyes / vitreous chamber depth difference between the eyes / refraction difference between the eyes / body weight: FDM; for refraction difference between the eyes: end of treatment (2 weeks); for body weight / mean weight decrease vs solvent group: vinpocetine 50 mg/kg/d gavage
Text: The form deprivation myopia animal model and the method for evaluating the efficacy of vinpocetine for myopia treatment used in this experiment were the same as other relevant embodiments (local administration) in this application. Among them, the establishment of a guinea pig model of form deprivation myopia (FDM) and the gavage administration were manipulated and performed referring to the published literature in the inventor's laboratory. […] On the first day of the experiment, form deprivation (FD) myopia modeling began at 8 a.m. on the guinea pigs. The form deprivation myopia model adopted the mask method. The hood was made by the inventors using a 10-inch milky white non-toxic latex balloon. The right eye of the individual guinea pig for modeling was covered by the hood (experimental eye), and the left eye was not covered by the hood (contralateral eye). FD induction was continued during the entire vinpocetine efficacy experiment cycle by gavage administration, and the hood was only briefly removed during eye testing (such as refraction testing). […] The administration route was gavage administration. […] Administration was performed once a day for 2 weeks. […] 2017). Without adding other pharmaceutical excipients or other compounds, the inventors directly and completely dissolved the vinpocetine compound powder in 0.5% methylcellulose solvent (sterile water+methylcellulose) to prepare a vinpocetine preparation (gavage liquid) at 10 mg/mL and 20 mg/mL. The overall appearance of the preparation at room temperature was clear, transparent, and uniform, with no suspended matter visible to the naked eye. The preparation process of the preparation may use conventional physical and chemical solubilization means such as heating, stirring, and pH adjustment as appropriate, and no compounds would precipitate before administration of the preparation.

[5] = vinpocetine 50 mg/kg gavage, 2 weeks
[6] = vinpocetine 100 mg/kg gavage, 2 weeks

## CCOC(=O)C1=C[C@]2(CC)CCCN3CCc4c(n1c1ccccc41)[C@@H]32 [vinpocetine]
rats; 20 mg/kg/day
  toxicity findings: no obvious abnormality
rats; 40 mg/kg
  toxicity findings: signs of weight loss and food intake reduction
rats; po
  LD50: approximately 500 mg/kg
[1]
  oral bioavailability: 52%
[2]; high-, medium- and low-concentration vinpocetine (1, 0.1, 0.01 μM), 3 days
  effect of myopia treatment compared with the negative control group: showed the effect of myopia treatment
[2]; vinpocetine 1 μM 0.1 mL/day peribulbar injection, 3 days
  refraction difference between the experimental eye and the contralateral eye: −2.00±0.82 D
[2]; vinpocetine 1 μM, 3 days
  axial length difference between the experimental eye and the contralateral eye: 0.04±0.02 mm
  inhibition rate for the axial length: 55.5%
  inhibition rate for the vitreous chamber depth: 58.8%
  refraction inhibition rate: 38.5%
  vitreous chamber depth difference between the experimental eye and the contralateral eye: 0.03±0.03 mm
[2]; vinpocetine 1 μM, 7 days
  axial length difference between the experimental eye and the contralateral eye: 0.05±0.02 mm
  inhibition rate for the axial length: 53.8%
  inhibition rate for the vitreous chamber depth: 49.8%
  refraction difference between the experimental eye and the contralateral eye: −2.61±1.17 D
  refraction inhibition rate: 36.3%
  vitreous chamber depth difference between the experimental eye and the contralateral eye: 0.05±0.02 mm
rabbits; 75 mg/kg/day
  toxicity findings: without any obvious abnormalities
rabbits; 150 mg/kg
  toxicity findings: toxic effects of weight loss and food intake reduction
[3]
  solubility in water: almost insoluble in water
[3]; room temperature
  solubility in 0.5% methylcellulose: 200 mg/mL (≈ 571 mM)
  solubility in water: 0.0024 mg/mL (≈ 0.00685 mM)
[4]; [5]
  axial length difference between the eyes: 0.13±0.05 mm
  vitreous chamber depth difference between the eyes: 0.13±0.07 mm
[4]; vinpocetine 50 mg/kg gavage
  refraction difference between the eyes: −5.71±2.41 D
[4]; 1 week
  body weight: 188 ± 22.9 g
  mean weight decrease vs solvent group: 9.9%
[4]; 2 weeks
  body weight: 210 ± 21.9 g
  mean weight decrease vs solvent group: 8.4%
[4]; [6]
  axial length difference between the eyes: 0.11±0.05 mm
  vitreous chamber depth difference between the eyes: 0.10±0.06 mm
[4]; vinpocetine 100 mg/kg gavage
  refraction difference between the eyes: −5.223±2.20 D
